Counter-ions that a name gives are not always drawn. Blank lines part the entries; values can stand above or below the compound they belong to.
Tests used:
[1] = Gel inhibition in concentrated aqueous vancomycin.HCl solutions; assay type: physicochemical; parameters: key: G = gel formation; NG = No gel formation; conditions: test compound 10% v/v in aqueous vancomycin.HCl 20% w/v, pH about 3.2, Waring blender high speed 3 minutes
Description: The experiments were carried out to determine the effect on gel formation in aqueous solutions of vancomycin HCl at a concentration of 20% w/v. The solutions were prepared as follows. An aqueous vehicle containing the test compound in an amount sufficient to provide 10% v/v in the final solution was prepared with water. Vancomycin-free base was added to the aqueous vehicle in an amount sufficient to provide a 20% w/v concentration in the final solution. The slurry of base in the aqueous vehicle was treated with 20% hydrochloric acid to form vancomycin.HCl salt and to adjust the pH to about 3.2. The solution which formed was kept covered to avoid loss of the test compound and water was added to the final volume. The solution was blended in a Waring blender at high speed for 3 minutes and then transferred to clear bottles to observe for gel formation.

[2] = Gel formation of aqueous vancomycin hydrochloride solutions; assay type: physicochemical; conditions: particularly when agitated by stirring, shaking or blending
[3] = room temperature; cited from earlier work
[4] = Vancomycin.HCl solubility in gel inhibitory compounds (UV or HPLC assay)
Description: The solubility of vancomycin.HCl in some of the gel inhibitory compounds was determined as follows. A two-gram quantity of chromatographically purified vancomycin hydrochloride was added to 100 ml of each compound under consideration. Fresh compound was used when possible to minimize the water content. […] The mixtures were stirred at a moderate rate for 4 hours, with sample aliquots removed at timepoints of 10 minutes, 2 hours and 4 hours. The mixtures were then allowed to stand overnight. A final aliquot was taken at the 20- to 24-hour timepoint. The sample aliquots were assayed by UV absorption measurements or HPLC with UV detection.
UV absorption at 280 nm was used to measure the concentration of vancomycin in the sample solutions made with the transparent solvents. Each sample was filtered through medium-pore filter paper and diluted with water to provide an absorption less than 1.0 A. The remaining compounds, acetone and ethyl acetate, required solvent removal before the measurement step. After filtration, sample aliquots were dried under nitrogen and reconstituted with an aqueous buffer for assay by HPLC. The propylene glycol sample were also assayed by HPLC after appropriate dilution without a drying step.

Test Result (gel formation) [1]: NG
Structure (SMILES): CCO [Ethanol]

Test Result (gel formation) [1]: G
Structure (SMILES): CCOC(C)=O [Ethyl acetate]

Test Result (gel formation) [1]: NG
Structure (SMILES): CC(=O)OC(C)C [Isopropyl acetate]

Test Result (gel formation) [1]: NG
Structure (SMILES): CC(C)O [Isopropanol]

Test Result (gel formation) [1]: NG
Structure (SMILES): CC(O)CO (centres unmarked) [Propylene glycol]

Further lines, the compound ahead of its results:

Structure (SMILES): CN[C@H](CC(C)C)C(=O)N[C@H]1C(=O)N[C@@H](CC(N)=O)C(=O)N[C@H]2C(=O)N[C@H]3C(=O)N[C@H](C(=O)N[C@H](C(=O)O)c4cc(O)cc(O)c4-c4cc3ccc4O)[C@H](O)c3ccc(c(Cl)c3)Oc3cc2cc(c3O[C@@H]2O[C@H](CO)[C@@H](O)[C@H](O)[C@H]2O[C@H]2C[C@](C)(N)[C@H](O)[C@H](C)O2)Oc2ccc(cc2Cl)[C@H]1O [Vancomycin.HCl, vancomycin hydrochloride]
concentration in water above which solutions form gels [2]: above 12 % w/v | solubility in water [3]: about 200 mg/ml | Solubility ([4]; in acetone, 10 min, HPLC assay): < 10 µg/mL | Solubility ([4]; in acetone, 2 hrs, HPLC assay): < 10 µg/mL | Solubility ([4]; in acetone, 4 hrs, HPLC assay): < 10 µg/mL | Solubility ([4]; in acetone, 20 hrs, HPLC assay): < 10 µg/mL | Solubility ([4]; in ethyl acetate, 10 min, HPLC assay): < 10 µg/mL | Solubility ([4]; in ethyl acetate, 2 hrs, HPLC assay): < 10 µg/mL | Solubility ([4]; in ethyl acetate, 4 hrs, HPLC assay): < 10 µg/mL | Solubility ([4]; in ethyl acetate, 20 hrs, HPLC assay): < 10 µg/mL | concentration at which gel forms in ethyl alcohol ([4]; in ethyl alcohol (non-aqueous)): about 2 mg/ml | Solubility ([4]; in isopropanol, 10 min, UV assay): 40 µg/mL | Solubility ([4]; in isopropanol, 2 hrs, UV assay): 40 µg/mL | Solubility ([4]; in isopropanol, 4 hrs, UV assay): 100 µg/mL | Solubility ([4]; in isopropanol, 20 hrs, UV assay): 70 µg/mL | Solubility ([4]; in methanol, 10 min, UV assay): 5300 µg/mL | Solubility ([4]; in methanol, 2 hrs, UV assay): 3700 µg/mL | Solubility ([4]; in methanol, 4 hrs, UV assay): 3100 µg/mL | Solubility ([4]; in methanol, 20 hrs, UV assay): 2400 µg/mL | Solubility ([4]; in propylene glycol, 10 min, HPLC assay): 3000 µg/mL

Structure (SMILES): CCC(C)=O [Methyl ethyl ketone]
Test Result (gel formation) [1]: NG

Structure (SMILES): CO [Methanol]
Test Result (gel formation) [1]: G

Structure (SMILES): CC(C)=O [Acetone]
Test Result (gel formation) [1]: NG

Structure (SMILES): OCC(O)CO [Glycerin]
Test Result (gel formation) [1]: G

From patent publication US4885275A, “Vancomycin-HCL solutions and the lyophilization thereof” (Eli Lilly and Company, priority 1987, dated 1989)
